Measured values reported in publication PMC6281413, “Inhibition of breast cancer metastasis to the lungs with UBS109” (Oncotarget, 2018).
Where “and” joins values, the source holds several entries; their conditions need not be identical. Equal entries are not always repeated. Entries after “also recorded” stand apart in the source; their conditions may differ. Where two headings read alike, the source gives them in different places.

Legend:
[1] = test system: human pancreatic cancer cells MiaPaca-2, ASPC-1, PT45P1 and PT45P1/asTF+; design: method as in doi:10.14319/ijcto.32.19; conditions: cited from earlier work; for ranking of the cytotoxic activities: four human pancreatic cancer cell lines
[2] = test system: NCI-60 cancer cell line panel; design: method as in PMID 15210154, PMID 15711178, PMID 16722634; conditions: mean, read-out: mean growth inhibitory concentration GI50; cited from earlier work
[3] = design: method as in PMID 24628271, PMID 23933177, doi:10.14319/ijcto.32.19; conditions: cited from earlier work
[4] = test system: MDA-MB-231 breast cancer cells; design: method as in PMID 24628271; conditions: at 1.25 μM, in vitro; cited from earlier work
[5] = pharmacokinetic study, single i.p. dose, plasma by LC/MS/MS; type: in vivo, CD-1 mice; conditions: 15 mg/kg i.p.
Protocol: Pharmacokinetic analysis of the plasma concentration time curve for each animal was conducted using noncompartmental analysis with WinNonlin® Version 6.3.0 (Figure 5). […] This is approximately […] in the blood of mice and, given the molecular weight of UBS109 of 291.4, yields a blood concentration of approximately 1.5 μM.
A pharmacokinetic (PK) study was performed by Agilux Laboratories Inc./Charles River laboratories, Inc. (Worcester, MA, USA). Male CD-1 mice (Harlan Laboratories, Inc.) weighing 28 ± 1.6 grams were used for the PK study. Three mice were administered a single i.p. dose of UBS109 15 mg/kg in 10% DMSO and 90% PBS.
A blood sample (approximately 35–40 μL) was taken from each animal from the tail vein at 4 different time points after dosing: 0.25, 0.5, 2, and 8 h (n=3 mice/time point). Samples were collected into K2EDTA-coated Microvette tubes (Sarstedt) on wet ice (protected from light) and processed to plasma by centrifugation (3500 rpm at 5°C) within 1 hour of collection. All plasma samples were transferred into separate 96 well plates (matrix tubes) and stored at −80°C until analysis for the parent drug by Agilux Laboratories/Charles River laboratories, Inc. via LC/MS/MS.
The plasma samples (10 μL) were deproteinated with acetonitrile (80 μL) and analyzed by LC/MS/MS using an internal standard (carbutamide) spiking technique with an AB SCIEX 6500+ system equipped with a Waters Acuity BEH C18 UPLC column (2 × 50 mm, 1.7 μm) operating at 55°C with mobile phases A (95:5:0.1 H2O:CAN:FA) and B (50:50:0.1 CAN:MeOH:FA). The corresponding time courses were 1.40 and 2.10 min (%MPB 95; Flow 0.800 mL/min) followed by a 2.80 min Strong Needle Rinse (25:25:25:25:0.1 (v:v:v:v:v) MeOH:ACN:IPA:H2O:NH4OH). The verified research grade bioanalytical assay method to determine the plasma concentrations of UBS109 (RGA Level 1) employed an API 6500+ electrospray, positive ion MS/MS device. The mean, standard deviation, and %CV of plasma levels were determined using Microsoft® Office Excel 2007. Mean concentration data was plotted against time to create plasma concentration versus time profiles at each dosage (Table 2 and Figure 5).
Pharmacokinetic analysis of the plasma concentration time curve for each animal was conducted using noncompartmental analysis with WinNonlin® Version 6.3.0. Areas under the curve (AUC) were estimated using the linear trapezoidal rule. The first order rate constant (Lambda Z) associated with the terminal (log-linear) elimination phase was estimated using linear regression of at least three nonzero concentrations versus time points in the late phase of the log concentration versus time profile. The half-life (t.) was calculated as ln(2)/Lambda Z. Nominal times were used in all the data analyses.

[6] = body weight / toxicity during treatment in the lung metastasis model; type: in vivo, athymic nude mice
Protocol: (§1) Athymic nude mice were housed in a pathogen-free facility and were intravenously injected into the tail vein with breast cancer MDA-MB-231 bone metastatic cells (10^6 cells/mouse) to result in lung metastasis (colonization). One week following injection, mice were randomized to receive either vehicle (0.5% carboxymethyl cellulose sodium [CMC] with 10% DMSO in sterile water) or drug (UBS109). The agents (vehicle, UBS109 at 5 or 15 mg/kg body weight) were administered intraperitoneally (i.p.) daily 5 days per week for 5 weeks (n = 4 mice/regimen). CMC was dissolved in distilled water and sterilized by autoclaving. Due to chemical instability, a stock solution of the drugs was made fresh each time, by weighing out 100 mg UBS109 and dissolving it in 1 mL of 100% DMSO by briefly heating before making the appropriate dilution. After UBS109 administration for 5 weeks, animals were sacrificed. The lungs containing breast cancer tumors were weighed and fixed in 10% neutralized formalin for 48 h. Paraffin embedded blocks were stained with hematoxylin and eosin (H&E). Body weights were measured once a week.

[7] = test system: MDA-MB-231 xenografts in the lungs; experiment: breast cancer lung metastasis (colonization) model, MDA-MB-231 cells injected into the tail vein; type: in vivo, athymic nude mice; conditions: for Lung weight (breast tumor nodules): n=4, ± S.D., vehicle control 296.6 ± 18.8
Protocol: The effect of UBS109 administration on lung metastasis was examined in mice bearing MDA-MB-231 xenografts in the lungs. Animals were administered therapeutic regimens of UBS109 by i.p. once/day 5 days/week (M-F) for 5 weeks, in the following groups: control vehicle, UBS109 at 5 mg/kg in vehicle, and UBS109 15 mg/kg in vehicle (n = 4). […] The cancer cells were mainly found in the lungs and some other sites. […] Treatment with UBS109 15 mg/kg appears the most efficacious in inhibiting tumors (lung colonies) (Figures 2 and 3). […] Lung weight was used to assess the breast cancer colony load present in the lungs of each mouse, since it is difficult to accurately count all colonies outside and inside in each lung.
Female athymic nude mice (nu/nu, Harlan Sprague-Dawley strain; 5-6 weeks old) were housed in a pathogen-free facility. All procedures and protocols were approved by the Institutional Animal Care and Use Committee at Emory University. Mice were randomized into […]: normal group (no tumor cells injected), lung metastasis model group (vehicle control), and two UBS109-treated groups with different dosages, 5 and 15 mg/kg body weight, 4 mice in each group.
as §1, with “After UBS109 administration for 5 weeks, animals were sacrificed. The lungs containing breast cancer tumors were weighed and fixed in 10% neutralized formalin for 48 h. Paraffin embedded blocks were stained with hematoxylin and eosin (H&E).” left out

## O=C1/C(=C/c2ccccc2F)CNC/C1=C\c1ccccc1F [EF24, 3,5-bis(2-flurobenzylidene)piperidin-4-one]
[1]
  ranking of the cytotoxic activities: UBS109> EF24> HSP90 inhibitor> gemcitabine> Akt inhibitor> p38 MAPK inhibitor
[2]
  GI50: 0.7 µM

## NC1(c2ccc(-c3nc4ccn5c(=O)[nH]nc5c4cc3-c3ccccc3)cc2)CCC1 [Akt inhibitor]
[1]
  ranking of the cytotoxic activities: UBS109> EF24> HSP90 inhibitor> gemcitabine> Akt inhibitor> p38 MAPK inhibitor

## Nc1ccn([C@@H]2O[C@H](CO)[C@@H](O)C2(F)F)c(=O)n1 [gemcitabine]
[1]
  ranking of the cytotoxic activities: UBS109> EF24> HSP90 inhibitor> gemcitabine> Akt inhibitor> p38 MAPK inhibitor
[1]; up to 20 μM used in the test
  maximal killing of pancreatic cancer cells: above 50%

## N.N.[Cl][Pt][Cl] [cisplatin]
[2]
  GI50: 9.5 µM

## CC(C)c1cc(-c2n[nH]c(=O)n2-c2ccc3c(ccn3C)c2)c(O)cc1O [HSP90 inhibitor]
[1]
  ranking of the cytotoxic activities: UBS109> EF24> HSP90 inhibitor> gemcitabine> Akt inhibitor> p38 MAPK inhibitor

## CN1CC(=Cc2ccccn2)C(=O)C(=Cc2ccccn2)C1 [UBS109, 3,5-bis(2-pyridinylmethylidene)-1-methyl-4-piperidone]
[1]; at 0.25 μM
  inhibition of all four pancreatic cancer cell lines: 100%
[1]
  ranking of the cytotoxic activities: UBS109> EF24> HSP90 inhibitor> gemcitabine> Akt inhibitor> p38 MAPK inhibitor
[3]
  water solubility relative to other MACs: most water soluble among the MACs
[4]
  cell killing of MDA-MB-231 cells: 100%
[5]; individual mouse
  AUClast: 813 ng·h/mL and 116 ng·h/mL and 1061 ng·h/mL
  Cmax: 398 ng/mL and 623 ng/mL and 835 ng/mL
  Extrapolated (AUC): 6.15%
[5]; mean (only mouse 2 reported)
  Extrapolated (AUC): 6.15%
[5]; mean of mice (only mouse 2 reported)
  T ½: 1.97 h
[5]; restated from Cmax
  approximate concentration in the blood of mice: approximately 1.5 ng/ml
[5]; male, CD-1, mouse, plasma, ip, 15 mg/kg, at 15 min post injection, read-out: maximal blood concentration (Cmax)
  Cmax: 432 ± 387 ng/mL
[5]; male, CD-1, mouse, plasma, ip, 15 mg/kg, mean of 3 mice
  AUC(0-t): 664 ng·h/mL
[5]; male, CD-1, mouse, plasma, ip, 15 mg/kg, mean of 3 mice, read-out: Cmax
  Cmax: 619 ng/mL
[5]; male, CD-1, mouse, plasma, ip, read-out: time of maximal blood concentration post injection (converted)
  Tmax: 15 min
[5]; male, CD-1, plasma, ip, individual mouse
  AUC(0-inf): 124 ng·h/mL
[5]; male, CD-1, plasma, ip, individual mouse, read-out: T ½ (converted)
  half-life: 118 min
[6]; 5 or 15 mg/kg body weight i.p. once daily 5 days a week for 5 weeks
  toxicity judged from body weight: not toxic
[6]; 5 or 15 mg/kg i.p. once daily 5 days/week for 5 weeks, versus controls
  body weight during treatment: did not lose weight; also recorded: remained the same as in the other groups
[7]; 15 mg/kg i.p. once daily 5 days/week for 5 weeks
  effect on lung metastasis/colonization (tumor deposition in the lungs by weight): significantly reduced; also recorded: significantly inhibited; also recorded: inhibited lung metastases
[7]; UBS109 5 mg/kg i.p. once daily 5 days/week for 5 weeks
  Lung weight (breast tumor nodules): 285.9 ± 11.2 mg
[7]; UBS109 15 mg/kg i.p. once daily 5 days/week for 5 weeks, p<0.05 vs control
  Lung weight (breast tumor nodules): 226.6 ± 19.8 mg

## diferuloylmethane [curcumin]
[2]
  GI50: 7.3 µM
